This passage reports inhibition results from patent US7109193B2, “Tricyclic diazepines tocolytic oxytocin receptor antagonists” (Wyeth, priority 2001, dated 2006).

The assay deals with T1, human oxytocin receptor (Homo sapiens, UniProt P30559).
T1 construct: host or cells: CHO cells (pcDNA3.1 vector)
T1 sequence (P30559 1-389): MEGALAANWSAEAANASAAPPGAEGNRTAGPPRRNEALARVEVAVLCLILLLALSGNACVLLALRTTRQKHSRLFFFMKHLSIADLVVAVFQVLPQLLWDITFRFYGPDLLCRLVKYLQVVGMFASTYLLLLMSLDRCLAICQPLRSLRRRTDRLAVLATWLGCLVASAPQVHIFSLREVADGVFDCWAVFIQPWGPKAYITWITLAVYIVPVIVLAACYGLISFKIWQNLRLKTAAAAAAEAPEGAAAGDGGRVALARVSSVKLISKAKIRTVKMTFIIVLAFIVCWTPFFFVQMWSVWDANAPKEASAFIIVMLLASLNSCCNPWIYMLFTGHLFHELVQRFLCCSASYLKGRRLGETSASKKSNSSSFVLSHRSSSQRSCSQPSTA
As to the kind of experiment: Oxytocin binding in Chinese Hamster Ovary cell membranes expressing human oxytocin receptors. As to conditions: 100 nM, CHO cell membranes, [3H]oxytocin, values without parentheses, read-out: OT % inhibition @ 100% nM.

On to `C=CCN1CCN(C(=O)c2ccc3n2Cc2ccccc2N(C(=O)c2ccc(-c4cccc(OC)c4)c(C)c2)C3)CC1` [Example 223, (4-Allyl-1-piperazinyl){10-[(3′-methoxy-2-methyl[1,1′-biphenyl]-4-yl)carbonyl]-10,11-dihydro-5H-pyrrolo[2,1-c][1,4]benzodiazepin-3-yl}methanone], for which the inhibition at 0.1 µM amounted to 71%.
As for `C=CCN1CCN(C(=O)c2ccc3n2Cc2ccccc2N(C(=O)c2ccc(-c4ccccc4C)cc2)C3)CC1` [Example 224, (4-Allyl-1-piperazinyl){10-[(2′-methyl[1,1′-biphenyl]-4-yl)carbonyl]-10,11-dihydro-5H -pyrrolo[2,1-c][1,4]benzodiazepin-3-yl}methanone], the inhibition at 0.1 µM was -3%.
For `C=CCN1CCN(C(=O)c2ccc3n2Cc2ccccc2N(C(=O)c2ccc(-c4ccccc4C)c(OC)c2)C3)CC1` [Example 225, (4-Allyl-1-piperazinyl){10-[(2-methoxy-2′-methyl[1,1′-biphenyl]-4-yl)carbonyl]-10,11-dihydro-5H-pyrrolo[2,1-c][1,4]benzodiazepin-3-yl}methanone], the inhibition at 0.1 µM was determined as 87%.
With `C=CCN1CCN(C(=O)c2ccc3n2Cc2ccccc2N(C(=O)c2cc(Cl)c(-c4cccc(OC)c4)cc2OC)C3)CC1` [Example 226, (4-Allyl-1-piperazinyl){10-[(6-chloro-3,3′-dimethoxy[1,1′-biphenyl]-4-yl)carbonyl]-10,11-dihydro-5H-pyrrolo[2,1-c][1,4]benzodiazepin-3-yl}methanone], the inhibition at 0.1 µM came out at 71%.
In the case of `C=CCN1CCN(C(=O)c2ccc3n2Cc2ccccc2N(C(=O)c2ccc(-c4ccccc4OC)c(OC)c2)C3)CC1` [Example 227, (4-Allyl-1-piperazinyl){10-[(2,2′-dimethoxy[1,1′-biphenyl]-4-yl)carbonyl]-10,11-dihydro-5H -pyrrolo[2,1-c][1,4]benzodiazepin-3-yl}methanone], the inhibition at 0.1 µM turned out to be 69%.
With `C=CCN1CCN(C(=O)c2ccc3n2Cc2ccccc2N(C(=O)c2ccc(-c4cccc(OC)c4)c(OC)c2)C3)CC1` [Example 228, (4-Allyl-1-piperazinyl){10-[(2,3′-dimethoxy[1,1′-biphenyl]-4-yl)carbonyl]-10,11-dihydro-5H -pyrrolo[2,1-c][1,4]benzodiazepin-3-yl}methanone], the inhibition at 0.1 µM was 77%.
`C=CCN1CCN(C(=O)c2ccc3n2Cc2ccccc2N(C(=O)c2ccc(-c4cccc5ccccc45)cc2Cl)C3)CC1` [Example 229, (4-Allyl-1-piperazinyl){10-[2-chloro-4-(1-naphthyl)benzoyl]-10,11-dihydro-5H-pyrrolo[2,1-c][1,4]benzodiazepin-3-yl}methanone]: the inhibition at 0.1 µM stood at 19%.
Regarding `C=CCN1CCN(C(=O)c2ccc3n2Cc2ccccc2N(C(=O)c2ccc(-c4ccccc4C(F)(F)F)c(C)c2)C3)CC1` [Example 230, (4-Allyl-1-piperazinyl)(10-{[2-methyl-2′-(trifluoromethyl)[1,1′-biphenyl]-4-yl]carbonyl}-10,11-dihydro-5H-pyrrolo[2,1-c][1,4]benzodiazepin-3-yl)methanone], the inhibition at 0.1 µM is 67%.
Turning to `C=CCN1CCN(C(=O)c2ccc3n2Cc2ccccc2N(C(=O)c2ccc(-c4cccc5ccccc45)c(OC)c2)C3)CC1` [Example 231, (4-Allyl-1-piperazinyl){10-[3-methoxy-4-(1-naphthyl)benzoyl]-10,11-dihydro-5H -pyrrolo[2,1-c][1,4]benzodiazepin-3-yl}methanone], the inhibition at 0.1 µM is 63%.
Regarding `COc1ccccc1-c1ccc(C(=O)N2Cc3ccc(C(=O)N4CCN(C(C)C)CC4)n3Cc3ccccc32)cc1C` [Example 232, (4-Isopropyl-1-piperazinyl){10-[(2′-methoxy-2-methyl[1,1′-biphenyl]-4-yl)carbonyl]-10,11-dihydro-5H-pyrrolo[2,1-c][1,4]benzodiazepin-3-yl}methanone], the inhibition at 0.1 µM was determined as 81%.
Take `Cc1ccccc1-c1ccc(C(=O)N2Cc3ccc(C(=O)N4CCN(C(C)C)CC4)n3Cc3ccccc32)cc1C` [Example 233, {10-[(2,2′-Dimethyl[1,1′-biphenyl]-4-yl)carbonyl]-10,11-dihydro-5H-pyrrolo[2,1-c][1,4]benzodiazepin-3-yl}(4-isopropyl-1-piperazinyl)methanone]: the inhibition at 0.1 µM stood at 86%.
For the molecule `COc1ccccc1-c1ccc(C(=O)N2Cc3ccc(C(=O)N4CCN(C(C)C)CC4)n3Cc3ccccc32)cc1` [Example 234, (4-Isopropyl-1-piperazinyl){10-[(2′-methoxy[1,1′-biphenyl]-4-yl)carbonyl]-10,11-dihydro-5H-pyrrolo[2,1-c][1,4]benzodiazepin-3-yl}methanone], the inhibition at 0.1 µM worked out at 82%.
`COc1cccc(-c2ccc(C(=O)N3Cc4ccc(C(=O)N5CCN(C(C)C)CC5)n4Cc4ccccc43)cc2C)c1` [Example 235, (4-Isopropyl-1-piperazinyl){10-[(3′-methoxy-2-methyl[1,1′-biphenyl]-4-yl)carbonyl]-10,11-dihydro-5H-pyrrolo[2,1-c][1,4]benzodiazepin-3-yl}methanone]: the inhibition at 0.1 µM worked out at 64%.
Turning to `COc1cc(C(=O)N2Cc3ccc(C(=O)N4CCN(C(C)C)CC4)n3Cc3ccccc32)ccc1-c1cccc2ccccc12` [Example 236, (4-Isopropyl-1-piperazinyl){10-[3-methoxy-4-(1-naphthyl)benzoyl]-10,11-dihydro-5H -pyrrolo[2,1-c][1,4]benzodiazepin-3-yl}methanone], the inhibition at 0.1 µM was found to be 46%.
With `COc1cc(C(=O)N2Cc3ccc(C(=O)N4CCN(C(C)C)CC4)n3Cc3ccccc32)ccc1-c1ccccc1C` [Example 237, (4-isopropyl-1-piperazinyl){10-[(2-methoxy-2′-methyl[1,1′-biphenyl]-4-yl)carbonyl]-10,11-dihydro-5H-pyrrolo[2,1-c][1,4]benzodiazepin-3-yl}methanone], the inhibition at 0.1 µM was 79%.
For `COc1cc(-c2ccccc2C)c(Cl)cc1C(=O)N1Cc2ccc(C(=O)N3CCN(C(C)C)CC3)n2Cc2ccccc21` [Example 238, {10-[(6-Chloro-3-methoxy-2′-methyl[1,1′-biphenyl]-4-yl)carbonyl]-10,11-dihydro-5H -pyrrolo[2,1-c][1,4]benzodiazepin-3-yl}(4-isopropyl-1-piperazinyl)methanone], the inhibition at 0.1 µM is 79%.
Turning to `COc1cccc(-c2cc(OC)c(C(=O)N3Cc4ccc(C(=O)N5CCN(C(C)C)CC5)n4Cc4ccccc43)cc2Cl)c1` [Example 239, {10-[(6-Chloro-3,3′-dimethoxy[1,1′-biphenyl]-4-yl)carbonyl]-10,11-dihydro-5H-pyrrolo[2,1-c][1,4]benzodiazepin-3-yl}(4-isopropyl-1-piperazinyl)methanone], the inhibition at 0.1 µM was determined as 61%.
On to `Cc1cc(C(=O)N2Cc3ccc(C(=O)N4CCN(C(C)C)CC4)n3Cc3ccccc32)ccc1-c1ccccc1C(F)(F)F` [Example 240, (4-Isopropyl-1-piperazinyl)(10-{[2-methyl-2′-(trifluoromethyl)[1,1′-biphenyl]-4-yl]carbonyl}-10,11-dihydro-5H-pyrrolo[2,1-c][1,4]benzodiazepin-3-yl)methanone], for which the inhibition at 0.1 µM is 62%.
Consider `COc1ccccc1-c1ccc(C(=O)N2Cc3ccc(C(=O)N4CCN(C(C)C)CC4)n3Cc3ccccc32)cc1OC` [Example 241, {10-[(2,2′-Dimethoxy[1,1-biphenyl]4-yl)carbonyl]-10,11-dihydro-5H-pyrrolo[2,1-c][1,4]benzodiazepin-3-yl}(4-isopropyl-1-piperazinyl)methanone], for which the inhibition at 0.1 µM was 51%.
As for `COc1cccc(-c2ccc(C(=O)N3Cc4ccc(C(=O)N5CCN(C(C)C)CC5)n4Cc4ccccc43)cc2OC)c1` [Example 242, {10-[(2,3′-Dimethoxy[1,1′-biphenyl]-4-yl)carbonyl]-10,11-dihydro-5H-pyrrolo[2,1-c][1,4]benzodiazepin-3-yl}(4-isopropyl-1-piperazinyl)methanone], the inhibition at 0.1 µM worked out at 69%.
